From ChEMBL document CHEMBL3885881, “DrugMatrix”

Organism: Rattus norvegicus
Assay: DrugMatrix - Regimen: Daily Repeat
Format: toxicity, organism-based, Sprague-Dawley
Parameters: regimen Daily Repeat, gender Male, age 6-8 weeks
Conditions: in vivo, po, route oral GAVAGE, vehicle 100 % WATER; for ABSOLUTE BASOPHIL / ABSOLUTE EOSINOPHIL / ABSOLUTE LYMPHOCYTE / ABSOLUTE MONOCYTE / ABSOLUTE SEGMENTED NEUTROPHIL / BASOPHIL / EOSINOPHIL / ERYTHROCYTE COUNT / HEMATOCRIT / HEMOGLOBIN / LEUKOCYTE COUNT / LYMPHOCYTE / MEAN CORPUSCULAR HEMOGLOBIN / MEAN CORPUSCULAR HEMOGLOBIN CONCENTRATION / MEAN CORPUSCULAR VOLUME / MONOCYTE / NEUTROPHIL / NUCLEATED RED BLOOD CELLS / PLATELET COUNT: tissue Blood; for ALANINE AMINOTRANSFERASE / ALBUMIN / ALKALINE PHOSPHATASE / ASPARTATE AMINOTRANSFERASE / BLOOD UREA NITROGEN / CARBON DIOXIDE / CHLORIDE / CHOLESTEROL / CREATINE PHOSPHOKINASE / CREATININE / GLUCOSE / LACTATE DEHYDROGENASE / LIPASE / PHOSPHORUS / POTASSIUM / SODIUM / TOTAL BILIRUBIN / TOTAL PROTEIN / URIC ACID: tissue Plasma
[1] = 10 mg/kg, 120 h, dose level Low, time 5 day
[2] = 900 mg/kg, 72 h, dose level High, time 3 day
[3] = 900 mg/kg, 120 h, dose level High, time 5 day

## CC(C)(C)NC[C@H](O)COc1nsnc1N1CCOCC1 [TIMOLOL]
[1]
  ABSOLUTE BASOPHIL: 0 CELLS/uL
  ABSOLUTE EOSINOPHIL: 115.33 CELLS/uL
  ABSOLUTE LYMPHOCYTE: 10711.67 CELLS/uL
  ABSOLUTE MONOCYTE: 97.67 CELLS/uL
  ABSOLUTE SEGMENTED NEUTROPHIL: 1075.33 CELLS/uL
  BASOPHIL: 0%
  EOSINOPHIL: 0.67%
  ERYTHROCYTE COUNT: 5.23 x10E6/uL
  HEMATOCRIT: 33.1%
  HEMOGLOBIN: 12.83 G/DL
  LEUKOCYTE COUNT: 12 x10E3/uL
  LYMPHOCYTE: 90%
  MEAN CORPUSCULAR HEMOGLOBIN: 24.53 pg
  MEAN CORPUSCULAR HEMOGLOBIN CONCENTRATION: 38.77 G/DL
  MEAN CORPUSCULAR VOLUME: 63.27 fL
  MONOCYTE: 0.67%
  NEUTROPHIL: 8.67%
  NUCLEATED RED BLOOD CELLS: 0 /100WBC
  PLATELET COUNT: 1050 x10E3/uL
  ALANINE AMINOTRANSFERASE: 51 u/L
  ALBUMIN: 4.03 G/DL
  ALKALINE PHOSPHATASE: 411.33 u/L
  ASPARTATE AMINOTRANSFERASE: 79.33 u/L
  BLOOD UREA NITROGEN: 15 mg/dL
  CARBON DIOXIDE: 29 mmol/L
  CHLORIDE: 101.33 MEQ/L
  CHOLESTEROL: 71 mg/dL
  CREATINE PHOSPHOKINASE: 333 u/L
  CREATININE: 0.16 mg/dL
  GLUCOSE: 180.33 mg/dL
  LACTATE DEHYDROGENASE: 129.33 u/L
  LIPASE: 9 u/L
  PHOSPHORUS: 11.93 mg/dL
  POTASSIUM: 5.38 MEQ/L
  SODIUM: 144.33 MEQ/L
  TOTAL BILIRUBIN: 0.13 mg/dL
  TOTAL PROTEIN: 6.1 G/DL
  URIC ACID: 0.73 mg/dL
[2]
  ABSOLUTE BASOPHIL: 0 CELLS/uL
  ABSOLUTE EOSINOPHIL: 0 CELLS/uL
  ABSOLUTE LYMPHOCYTE: 11176.67 CELLS/uL
  ABSOLUTE MONOCYTE: 84.33 CELLS/uL
  ABSOLUTE SEGMENTED NEUTROPHIL: 872.33 CELLS/uL
  BASOPHIL: 0%
  EOSINOPHIL: 0%
  ERYTHROCYTE COUNT: 5.11 x10E6/uL
  HEMATOCRIT: 32.53%
  HEMOGLOBIN: 12.93 G/DL
  LEUKOCYTE COUNT: 12.13 x10E3/uL
  LYMPHOCYTE: 92%
  MEAN CORPUSCULAR HEMOGLOBIN: 25.27 pg
  MEAN CORPUSCULAR HEMOGLOBIN CONCENTRATION: 39.77 G/DL
  MEAN CORPUSCULAR VOLUME: 63.67 fL
  MONOCYTE: 0.67%
  NEUTROPHIL: 7.33%
  NUCLEATED RED BLOOD CELLS: 0.33 /100WBC
  PLATELET COUNT: 1179.33 x10E3/uL
  ALANINE AMINOTRANSFERASE: 48 u/L
  ALBUMIN: 3.73 G/DL
  ALKALINE PHOSPHATASE: 389 u/L
  ASPARTATE AMINOTRANSFERASE: 98 u/L
  BLOOD UREA NITROGEN: 12.67 mg/dL
  CARBON DIOXIDE: 29.33 mmol/L
  CHLORIDE: 101.67 MEQ/L
  CHOLESTEROL: 77.33 mg/dL
  CREATINE PHOSPHOKINASE: 901.67 u/L
  CREATININE: 0.28 mg/dL
  GLUCOSE: 148.67 mg/dL
  LACTATE DEHYDROGENASE: 189.33 u/L
  LIPASE: 11.33 u/L
  PHOSPHORUS: 13.97 mg/dL
  POTASSIUM: 7.3 MEQ/L
  SODIUM: 143.43 MEQ/L
  TOTAL BILIRUBIN: 0.17 mg/dL
  TOTAL PROTEIN: 5.43 G/DL
  URIC ACID: 1.67 mg/dL
[3]
  ABSOLUTE BASOPHIL: 0 CELLS/uL
  ABSOLUTE EOSINOPHIL: 114.33 CELLS/uL
  ABSOLUTE LYMPHOCYTE: 9946 CELLS/uL
  ABSOLUTE MONOCYTE: 153 CELLS/uL
  ABSOLUTE SEGMENTED NEUTROPHIL: 1220 CELLS/uL
  BASOPHIL: 0%
  EOSINOPHIL: 1%
  ERYTHROCYTE COUNT: 5.75 x10E6/uL
  HEMATOCRIT: 36.17%
  HEMOGLOBIN: 13.83 G/DL
  LEUKOCYTE COUNT: 11.43 x10E3/uL
  LYMPHOCYTE: 87%
  MEAN CORPUSCULAR HEMOGLOBIN: 24.07 pg
  MEAN CORPUSCULAR HEMOGLOBIN CONCENTRATION: 38.27 G/DL
  MEAN CORPUSCULAR VOLUME: 62.97 fL
  MONOCYTE: 1.33%
  NEUTROPHIL: 10.67%
  NUCLEATED RED BLOOD CELLS: 0 /100WBC
  PLATELET COUNT: 1330.33 x10E3/uL
  ALANINE AMINOTRANSFERASE: 48 u/L
  ALBUMIN: 3.63 G/DL
  ALKALINE PHOSPHATASE: 402.67 u/L
  ASPARTATE AMINOTRANSFERASE: 107.33 u/L
  BLOOD UREA NITROGEN: 14.33 mg/dL
  CARBON DIOXIDE: 23.67 mmol/L
  CHLORIDE: 103.67 MEQ/L
  CHOLESTEROL: 78.67 mg/dL
  CREATINE PHOSPHOKINASE: 707.33 u/L
  CREATININE: 0.14 mg/dL
  GLUCOSE: 142 mg/dL
  LACTATE DEHYDROGENASE: 252.33 u/L
  LIPASE: 10 u/L
  PHOSPHORUS: 11.6 mg/dL
  POTASSIUM: 6.41 MEQ/L
  SODIUM: 144.37 MEQ/L
  TOTAL BILIRUBIN: 0.17 mg/dL
  TOTAL PROTEIN: 5.27 G/DL
  URIC ACID: 1.5 mg/dL
